# Bridge positions count the residues as written; N and C are the ends. Square brackets hold non-standard residues; d marks the D form. Peptide text beside a SMILES is read from it. * marks the point of attachment. Myristoyl = CCCCCCCCCCCCCC(=O)*; dOrn = NCCC[C@@H](N)C(=O)O; Orn = NCCC[C@H](N)C(=O)O
# How the values were obtained:
# Type in all cases: cell-based
# [1] = tested on: Acinetobacter baumannii 1104008; assay: microbe, parasite or virus in culture; conditions: Table S11; LB broth, 37 °C, 16 h, n = 2
# Description: (§1) All MIC assays were performed two independent times (n = 2) in 96‐well plates using a broth micro‐dilution method. The lowest concentration of that inhibited visible microbial growth was recorded as the MIC value.
# (§2) For most of bacterial strains, overnight cultures were diluted 5000‐fold in LB broth. For E. faecium and S. aureus, overnight cultures were diluted 1000‐ and 10000‐fold in LB broth, respectively. 100 µL of diluted cells was mixed with 100 µL of LB broth containing each peptide ranging from 64 to 0.125 µg mL^−1 at 2‐fold serial dilutions.
# [2] = tested on: Pseudomonas aeruginosa PAO1; assay: microbe, parasite or virus in culture; conditions: PAO1, 16 h
# Description: as §1, §2
# [3] = tested on: Klebsiella pneumoniae ATCC 13883; assay: microbe, parasite or virus in culture; conditions: ATCC 13883, 16 h
# Description: as §1, §2
# [4] = tested on: Enterococcus faecium 35682; assay: microbe, parasite or virus in culture; conditions: 35682, 16 h
# Description: as §1, §2
# [5] = tested on: Acinetobacter baumannii P53; assay: microbe, parasite or virus in culture; conditions: Table S11; LB broth, 37 °C, 16 h, n = 2
# Description: as §1, §2
# [6] = tested on: Pseudomonas aeruginosa ATCC 9027; assay: microbe, parasite or virus in culture; conditions: ATCC 9027, 16 h
# Description: as §1, §2
# [7] = tested on: Klebsiella pneumoniae NCTC 5056; assay: microbe, parasite or virus in culture; conditions: NCTC 5056, 16 h
# Description: as §1, §2
# [8] = tested on: Klebsiella pneumoniae CRKP HS11286; assay: microbe, parasite or virus in culture; conditions: CRKP HS11286, 16 h
# Description: as §1, §2
# [9] = tested on: Enterococcus faecalis ATCC 29212; assay: microbe, parasite or virus in culture; conditions: ATCC 29212, 16 h
# Description: as §1, §2
# [10] = tested on: Staphylococcus aureus ATCC 6538; assay: microbe, parasite or virus in culture; conditions: ATCC 6538, 16 h
# Description: as §1, §2
# [11] = tested on: Staphylococcus aureus Newman; assay: microbe, parasite or virus in culture; conditions: Newman, 16 h
# Description: as §1, §2
# [12] = tested on: Salmonella typhimurium LXX; assay: microbe, parasite or virus in culture; conditions: murium LXX, 16 h
# Description: as §1, §2
# Enterococcus faecalis 26 = assay: microbe, parasite or virus in culture; conditions: 26, 16 h
# Description: as §1, §2
# [13] = tested on: Staphylococcus aureus USA300; assay: microbe, parasite or virus in culture; conditions: for antibacterial activity (MIC) S. aureus USA300: Figure S127b, wild type
# Description: as §1, §2
# [14] = tested on: Klebsiella pneumoniae CRKP 5452; assay: microbe, parasite or virus in culture; conditions: Table S11; LB broth, 37 °C, 16 h, n = 2
# Description: as §1, §2
# Enterococcus faecalis 28 = assay: microbe, parasite or virus in culture; conditions: 28, 16 h
# Description: as §1, §2
# [15] = tested on: Streptococcus pyogenes ATCC 19615; assay: microbe, parasite or virus in culture; conditions: Table S11; LB broth, 37 °C, 16 h, n = 2
# Description: as §1, §2
# [16] = tested on: Acinetobacter baumannii ATCC 19606; assay: microbe, parasite or virus in culture; conditions: ATCC 19606, 16 h
# Description: as §1, §2
# [17] = tested on: Staphylococcus aureus ATCC 25923; assay: microbe, parasite or virus in culture; conditions: ATCC 25923, 16 h
# Description: as §1, §2
# [18] = tested on: Streptococcus mutans ATCC 25175; assay: microbe, parasite or virus in culture; conditions: ATCC 25175, 16 h
# Description: as §1, §2
# [19] = tested on: Acinetobacter baumannii ATCC 17978; assay: microbe, parasite or virus in culture; conditions: ATCC 17978, 16 h
# Description: as §1, §2
# [20] = tested on: Salmonella enterica ATCC 14028; assay: microbe, parasite or virus in culture; conditions: ATCC 14028, 16 h
# Description: as §1, §2
# [21] = tested on: Vibrio alginolyticus XSBZ14; assay: microbe, parasite or virus in culture; conditions: 16 h
# Description: as §1, §2
# [22] = tested on: Candida albicans ATCC 10231; assay: MIC assay (YPD broth); conditions: Table S11; YPD broth, 30 °C, 16 h, n = 2
# Description: as §1
# (§3) For fungal strains, overnight cultures were diluted 2000‐fold in YPD broth. 100 µL of diluted cells was mixed with 100 µL of YPD broth containing each peptide ranging from […] 64 to 0.125 µg mL^−1 at 2‐fold serial dilutions.
# [23] = tested on: Candida albicans ATCC 64550; conditions: ATCC 64550, 16 h
# Description: as §1, §3
# Shigella Castellani LXX = assay: MIC assay (broth micro-dilution); conditions: Table S11; LB broth, 37 °C, 16 h, n = 2
# Description: as §1, §2
# Escherichia coli DH5α = assay: MIC assay (broth micro-dilution); conditions: Table S11; LB broth, 37 °C, 16 h, n = 2
# Description: as §1, §2
# [24] = tested on: S. aureus USA300 Cls2A338stop; assay: MIC against telomycin-resistant mutant; conditions: for antibacterial activity (MIC) S. aureus USA300 Cls2A338stop: Figure S127b, telomycin-resistant mutant
# Description: as §1, §2
# (§4) Overnight cultures S. aureus USA300 were diluted 10000‐fold in LB broth, and 100 µL of dilute cell suspension was added to 96‐well plates containing 100 µL serially diluted aquicidine C4, telomycin, and daptomycin (with 15 mM CaCl2). Overnight cultures K. pneumoniae CRKP5452 were diluted 5000‐fold in LB broth, and 100 µL of dilute cell suspension was added to 96‐well plates containing 100 µL serially diluted aquicidine L and colistin. After an incubation of 24 h at 37 °C, the MIC value was determined. […] The MIC value was recorded as described above, and the process was repeated daily for 21 days. Experiments were performed two independent times (n = 2).
# (§5) Single‐nucleotide polymorphisms (SNPs) for telomycin‐, daptomycin‐ or colistin‐resistant mutants were identified using SNIPPY by mapping DNBSEQ‐seq reads to the reference genome of S. aureus USA300 or K. pneumoniae CRKP5452.
# [25] = tested on: S. aureus USA300 MprFT345A; assay: MIC against daptomycin-resistant mutant; conditions: for antibacterial activity (MIC) S. aureus USA300 MprFT345A: Figure S127b, daptomycin-resistant mutant
# Description: as §1, §2, §4, §5
compound,measurement,setting,value
CCCCCCCCCCCCCC(=O)N[C@@H](CCCN)C(=O)N[C@H](Cc1ccc(O)cc1)C(=O)N[C@@H](C(=O)N[C@H]1C(=O)N[C@H](CCCN)C(=O)N[C@@H](CCCN)C(=O)N[C@H](C(C)C)C(=O)N[C@@H]([C@@H](C)CC)C(=O)N[C@@H](CC(C)C)C(=O)N[C@H](CCCN)C(=O)N[C@@H]([C@@H](C)O)C(=O)N[C@@H](C)C(=O)O[C@H]1C)C(C)C [synAQU6-C4] (Myristoyl-[Orn][dY][dV][dT][dOrn][Orn][dV]IL[dOrn]TA; ester 4-C),MIC Acinetobacter baumannii 1104008,[1],32 µg/mL
same,MIC Pseudomonas aeruginosa PAO1,[2],16 µg/mL
same,MIC Klebsiella pneumoniae ATCC 13883,[3],32 µg/mL
same,MIC Enterococcus faecium 35682,[4],32 µg/mL
same,MIC Acinetobacter baumannii P53,[5],> 64 µg/mL
same,MIC Pseudomonas aeruginosa ATCC 9027,[6],> 64 µg/mL
same,MIC Klebsiella pneumoniae NCTC 5056,[7],32 µg/mL
same,MIC Klebsiella pneumoniae CRKP HS11286,[8],32 µg/mL
same,MIC Enterococcus faecalis ATCC 29212,[9],> 64 µg/mL
same,MIC Staphylococcus aureus ATCC 6538,[10],16 µg/mL
same,MIC Staphylococcus aureus Newman,[11],> 64 µg/mL
same,MIC Salmonella typhimurium LXX,[12],32 µg/mL
same,MIC Enterococcus faecalis 26,Enterococcus faecalis 26,2 µg/mL
same,MIC Staphylococcus aureus USA300,"[13]; USA300, 16 h",> 64 µg/mL
same,MIC Klebsiella pneumoniae CRKP 5452,[14],16 µg/mL
same,MIC Enterococcus faecalis 28,Enterococcus faecalis 28,> 64 µg/mL
same,MIC Streptococcus pyogenes ATCC 19615,[15],4 µg/mL
same,MIC Acinetobacter baumannii ATCC 19606,[16],> 64 µg/mL
same,MIC Staphylococcus aureus ATCC 25923,[17],16 µg/mL
same,MIC Streptococcus mutans ATCC 25175,[18],4 µg/mL
same,MIC Acinetobacter baumannii ATCC 17978,[19],32 µg/mL
same,MIC Salmonella enterica ATCC 14028,[20],32 µg/mL
same,MIC Vibrio alginolyticus XSBZ14,[21],> 64 µg/mL
same,MIC Candida albicans ATCC 10231,[22],> 64 µg/mL
same,MIC Candida albicans ATCC 64550,[23],> 64 µg/mL
same,MIC Shigella Castellani LXX,Shigella Castellani LXX,> 64 µg/mL
same,MIC Escherichia coli DH5α,Escherichia coli DH5α,8 µg/mL
Daptomycin,antibacterial activity (MIC) S. aureus USA300,[13],1 µg/mL
same,antibacterial activity (MIC) S. aureus USA300 Cls2A338stop,[24],1 µg/mL
same,antibacterial activity (MIC) S. aureus USA300 MprFT345A,[25],16 µg/mL
same,increase in MIC against resistant mutant compared to wild type,[25]; S. aureus USA300 MprF^T345A vs wild type,16 fold
Telomycin,antibacterial activity (MIC) S. aureus USA300,[13],4 µg/mL
same,antibacterial activity (MIC) S. aureus USA300 Cls2A338stop,[24],128 µg/mL
same,increase in MIC against resistant mutant compared to wild type,[24]; S. aureus USA300 Cls2^A338stop vs wild type,32 fold
same,antibacterial activity (MIC) S. aureus USA300 MprFT345A,[25],4 µg/mL

# Reference: publication PMC12677607, “Identification of a Pair of Linear or Cyclic Naturally Inspired Bifunctional Lipopeptide Antibiotics That Overcome Antimicrobial Resistance” (Advanced Science, 2025)
